These results are taken from patent publication US12258355B2, “Probes for imaging huntingtin protein” (CHDI Foundation, Inc., priority 2014, dated 2025).

The term IC50 denotes the concentration needed to halve the response being measured. Read a high IC50 as a need for much substance.

The target in this experiment is T1, Q46 protein aggregates (Homo sapiens, UniProt P42858).
T1 construct: fused on or other part: GST at the N-terminus, cut off with thrombin before the test to start aggregation; The wells held aggregated Q46 without GST
T1 sequence (P42858 with tags, fused parts or gaps with the stated changes, form open): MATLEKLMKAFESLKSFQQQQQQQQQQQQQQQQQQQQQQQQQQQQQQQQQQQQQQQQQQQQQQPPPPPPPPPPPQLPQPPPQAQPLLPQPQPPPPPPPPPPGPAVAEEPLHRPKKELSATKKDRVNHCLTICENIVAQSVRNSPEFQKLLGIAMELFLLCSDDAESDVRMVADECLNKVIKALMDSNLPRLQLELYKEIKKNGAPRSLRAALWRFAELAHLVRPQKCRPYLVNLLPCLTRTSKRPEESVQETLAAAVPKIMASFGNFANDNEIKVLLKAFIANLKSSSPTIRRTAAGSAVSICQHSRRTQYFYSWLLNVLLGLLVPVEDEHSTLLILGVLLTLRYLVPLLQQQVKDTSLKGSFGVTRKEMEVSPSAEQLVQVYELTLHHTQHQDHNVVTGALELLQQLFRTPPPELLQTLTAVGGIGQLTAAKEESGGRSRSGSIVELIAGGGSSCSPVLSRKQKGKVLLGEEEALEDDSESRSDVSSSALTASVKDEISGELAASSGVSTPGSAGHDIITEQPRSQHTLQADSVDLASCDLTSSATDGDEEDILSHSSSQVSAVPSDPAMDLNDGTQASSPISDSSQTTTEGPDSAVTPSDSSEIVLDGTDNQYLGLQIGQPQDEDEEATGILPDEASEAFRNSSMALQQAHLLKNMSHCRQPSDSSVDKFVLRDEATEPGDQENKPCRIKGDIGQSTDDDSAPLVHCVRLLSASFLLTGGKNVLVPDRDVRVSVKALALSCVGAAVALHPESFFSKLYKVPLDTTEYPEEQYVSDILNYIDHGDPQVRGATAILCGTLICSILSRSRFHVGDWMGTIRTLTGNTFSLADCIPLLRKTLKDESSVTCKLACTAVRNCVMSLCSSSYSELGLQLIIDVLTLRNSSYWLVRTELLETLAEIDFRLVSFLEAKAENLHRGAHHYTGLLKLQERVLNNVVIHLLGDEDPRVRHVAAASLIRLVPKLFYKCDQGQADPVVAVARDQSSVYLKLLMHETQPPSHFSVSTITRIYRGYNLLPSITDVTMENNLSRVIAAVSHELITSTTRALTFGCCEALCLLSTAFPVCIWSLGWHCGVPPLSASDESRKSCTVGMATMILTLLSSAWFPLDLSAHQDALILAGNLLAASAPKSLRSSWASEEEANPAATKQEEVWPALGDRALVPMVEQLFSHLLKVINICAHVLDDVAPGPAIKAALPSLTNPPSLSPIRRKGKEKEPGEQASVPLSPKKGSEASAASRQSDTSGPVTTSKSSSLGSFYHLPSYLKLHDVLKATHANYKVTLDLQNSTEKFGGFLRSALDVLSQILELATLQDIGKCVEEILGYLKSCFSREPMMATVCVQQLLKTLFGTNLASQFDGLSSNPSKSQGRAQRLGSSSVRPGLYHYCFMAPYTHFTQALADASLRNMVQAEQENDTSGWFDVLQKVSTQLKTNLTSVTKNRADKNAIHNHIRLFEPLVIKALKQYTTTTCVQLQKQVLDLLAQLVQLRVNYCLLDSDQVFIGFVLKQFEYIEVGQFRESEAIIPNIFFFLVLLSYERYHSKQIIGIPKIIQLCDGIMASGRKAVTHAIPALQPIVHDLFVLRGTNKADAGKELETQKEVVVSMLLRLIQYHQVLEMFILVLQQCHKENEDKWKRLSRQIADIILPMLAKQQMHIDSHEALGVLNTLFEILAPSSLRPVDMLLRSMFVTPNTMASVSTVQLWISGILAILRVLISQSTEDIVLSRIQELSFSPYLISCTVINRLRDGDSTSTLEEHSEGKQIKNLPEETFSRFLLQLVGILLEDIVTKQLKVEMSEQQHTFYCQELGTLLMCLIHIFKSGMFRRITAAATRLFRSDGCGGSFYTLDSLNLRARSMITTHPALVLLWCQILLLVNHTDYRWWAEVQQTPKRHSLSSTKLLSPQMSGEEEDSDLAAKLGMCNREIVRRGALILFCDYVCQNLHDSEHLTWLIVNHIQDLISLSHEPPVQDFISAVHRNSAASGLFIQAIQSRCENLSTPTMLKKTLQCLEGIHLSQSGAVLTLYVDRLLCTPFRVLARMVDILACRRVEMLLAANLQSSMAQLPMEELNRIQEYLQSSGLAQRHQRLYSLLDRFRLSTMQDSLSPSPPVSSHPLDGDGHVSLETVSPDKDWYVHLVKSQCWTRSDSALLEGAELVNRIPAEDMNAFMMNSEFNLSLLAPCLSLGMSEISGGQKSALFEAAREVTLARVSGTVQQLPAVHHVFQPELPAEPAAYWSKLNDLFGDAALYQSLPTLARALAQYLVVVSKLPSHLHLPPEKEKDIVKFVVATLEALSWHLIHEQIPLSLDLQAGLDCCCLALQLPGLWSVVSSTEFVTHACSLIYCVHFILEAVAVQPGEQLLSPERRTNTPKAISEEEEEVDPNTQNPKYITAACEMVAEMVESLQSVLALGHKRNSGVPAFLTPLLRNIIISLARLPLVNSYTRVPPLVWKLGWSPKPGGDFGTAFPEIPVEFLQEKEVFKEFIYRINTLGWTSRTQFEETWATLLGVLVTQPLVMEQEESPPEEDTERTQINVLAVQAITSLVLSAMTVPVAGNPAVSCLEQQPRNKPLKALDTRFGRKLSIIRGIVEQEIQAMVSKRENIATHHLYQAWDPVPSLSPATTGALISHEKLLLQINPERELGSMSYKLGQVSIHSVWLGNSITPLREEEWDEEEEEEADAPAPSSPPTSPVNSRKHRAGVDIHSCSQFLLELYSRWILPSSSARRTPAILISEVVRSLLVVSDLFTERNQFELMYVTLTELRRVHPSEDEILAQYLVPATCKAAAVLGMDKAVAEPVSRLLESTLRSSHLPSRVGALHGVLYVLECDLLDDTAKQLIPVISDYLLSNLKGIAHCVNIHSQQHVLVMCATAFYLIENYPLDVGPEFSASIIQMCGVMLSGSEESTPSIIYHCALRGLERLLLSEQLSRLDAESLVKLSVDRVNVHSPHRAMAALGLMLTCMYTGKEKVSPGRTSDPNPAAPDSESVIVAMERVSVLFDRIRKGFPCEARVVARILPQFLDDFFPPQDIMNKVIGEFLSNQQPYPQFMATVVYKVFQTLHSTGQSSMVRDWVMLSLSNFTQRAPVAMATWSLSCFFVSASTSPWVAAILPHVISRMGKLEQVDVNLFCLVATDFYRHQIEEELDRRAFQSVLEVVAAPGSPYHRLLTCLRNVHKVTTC
The experiment is described as follows: Q46 radioligand binding assay (RBA). As to conditions: 10 nM ligand [3H3]MK-3328. The protocol:
Q46 Radioligand Binding Assay
For radioligand binding assays (RBA) GST-Q46 protein was generated based on a previous publication (Scherzinger et al. Cell, Vol. 90, 549-558, Aug. 8, 1997). For experiments 33 μM GST-Q46 was incubated with 150 μg/mL thrombin in assay buffer (150 mM NaCl, 50 mM Tris pH 8.0) and 2 mM CaCl2 for 16 hours at 37° C. Aggregated Q46 was pelleted by centrifugation for 5 minutes at 13,000 rpm in a bench top centrifuge and re-dissolved in the same volume of assay buffer. Test compounds were prepared by titration in DMSO at 11 concentrations from 33 μM to 1 nM. For the RBA, Q46 protein aggregates and test compounds were pre-incubated in assay buffer for 20 minutes at room temperature, in 140 μL/well in a 96-well plate (pp, round bottom). Then, ligand was added in 10 μL/well and incubated for 60 minutes at 37° C. Final assay concentrations were 1 μM to 30 pM test compound, 5 μM Q46 protein (equivalent monomer concentration) and 10 nM ligand [^3H3]MK-3328 (Harrision et al., ACS Med. Chem. Lett., 2 (2011), pp 498-502). Samples were transferred onto GF/B filter plates and washed 2× with 200 μL PBS using a Filtermate Harvester. After drying filter plates for 1 hour at 37° C., the back of the plates were sealed with foil and 30 μL/well scintillation fluid (Packard MicroScint 40) added, incubated for 15 minutes in the dark and counted in a TopCount reader. For analysis, replicate data from independent assay plates were normalized towards 0% and 100% inhibition using control wells of vehicle (0% inhibition) and 3 μM unlabelled MK-3328 (100% inhibition). IC50 values were determined with a sigmoidal inhibition model with four variables (top, bottom, slope, IC50) in a global fit using the normalized replicate data.
As for `Cn1cc(-c2cc3cc(OCc4cncnc4)ccc3o2)c(C#N)n1` [1-methyl-4-[5-(pyrimidin-5-ylmethoxy)-1-benzofuran-2-yl]-1H-pyrazole-3-carbonitrile], the IC50 was less than 0.1 µM.

For the compound `Cn1cc(C(=O)Nc2ccc3oc(-c4cccnc4)nc3c2)cn1` [1-methyl-N-[2-(pyridin-3-yl)-1,3-benzoxazol-5-yl]-1H-pyrazole-4-carboxamide], the IC50 is less than 0.1 µM.

`COc1ccc(COc2cnc3oc(-c4ccc(=O)n(C)n4)nc3c2)nc1` [6-{6-[(5-methoxypyridin-2-yl)methoxy]-[1,3]oxazolo[5,4-b]pyridin-2-yl}-2-methyl-2,3-dihydropyridazin-3-one] displayed an IC50 of less than 0.1 µM.

On to `Cn1nc(-c2nc3cc(OCc4ccc(OCCF)cn4)cnc3o2)ccc1=O` [6-(6-{[5-(2-fluoroethoxy)pyridin-2-yl]methoxy}-[1,3]oxazolo[5,4-b]pyridin-2-yl)-2-methyl-2,3-dihydropyridazin-3-one], for which the IC50 is less than 0.1 µM.

In turn, `COc1ccc(COc2ccc3oc(-c4ccc(OC)cn4)nc3c2)nc1` [2-(5-methoxypyridin-2-yl)-5-[(5-methoxypyridin-2-yl)methoxy]-1,3-benzoxazole] gave a half-inhibitory concentration (IC50) of less than 0.1 µM.

Compound `COc1cnc(COc2ccc3c(c2)nc(-c2cccnc2)n3C)cn1` [5-[(5-methoxypyrazin-2-yl)methoxy]-1-methyl-2-(pyridin-3-yl)-1H-1,3-benzodiazole] showed an IC50 of 0.1 to 0.5 µM.

In the case of `O=C(Nc1ccc2oc(-c3cccnc3)nc2c1)c1ccc2occc2c1` [N-[2-(pyridin-3-yl)-1,3-benzoxazol-5-yl]-1-benzofuran-5-carboxamide], the IC50 was less than 0.1 µM.

The compound `COc1ccc(COc2ccc3oc(-c4cn(C)c(=O)cn4)nc3c2)nc1` [5-{5-[(5-methoxypyridin-2-yl)methoxy]-1,3-benzoxazol-2-yl}-1-methyl-1,2-dihydropyrazin-2-one] yielded an IC50 of less than 0.1 µM.

Compound `Cn1cc(COc2ccc3oc(-c4cccnc4)nc3c2)ncc1=O` [1-methyl-5-({[2-(pyridin-3-yl)-1,3-benzoxazol-5-yl]oxy}methyl)-1,2-dihydropyrazin-2-one] had an IC50 of 0.1 to 0.5 µM.

For the compound `O=C(Nc1ccc2oc(-c3cccnc3)nc2c1)c1cccnc1Oc1ccccc1` [2-phenoxy-N-[2-(pyridin-3-yl)-1,3-benzoxazol-5-yl]pyridine-3-carboxamide], the IC50 was less than 0.1 µM.

In turn, `COc1ccc2c(c1)CN(c1ccc3oc(-c4cccnc4)nc3c1)C2=O` [5-methoxy-2-[2-(pyridin-3-yl)-1,3-benzoxazol-5-yl]-2,3-dihydro-1H-isoindol-1-one] displayed a half-maximal inhibitory concentration (IC50) of less than 0.1 µM.

`COc1ccc(-c2ccc3oc(-c4cccnc4)nc3c2)nn1` [5-(6-methoxypyridazin-3-yl)-2-(pyridin-3-yl)-1,3-benzoxazole]: the IC50 is less than 0.1 µM.

In turn, `COCCOc1cnc(-c2ccc3oc(-c4cccnc4)nc3c2)nc1` [5-[5-(2-methoxyethoxy)pyrimidin-2-yl]-2-(pyridin-3-yl)-1,3-benzoxazole] registered an IC50 of less than 0.1 µM.

Take `c1ccc(OCCOc2ccc3oc(-c4cccnc4)nc3c2)nc1` [5-[2-(pyridin-2-yloxy)ethoxy]-2-(pyridin-3-yl)-1,3-benzoxazole]: the IC50 was 0.1 to 0.5 µM.

Regarding `COc1cncc(NC(=O)c2ccc3oc(-c4cccnc4)nc3c2)c1` [N-(5-methoxypyridin-3-yl)-2-(pyridin-3-yl)-1,3-benzoxazole-5-carboxamide], the IC50 is less than 0.1 µM.

Consider `CN(C)CCn1cc(COc2ccc3oc(-c4ccncc4C#N)cc3c2)cn1` [4-[5-({1-[2-(dimethylamino)ethyl]-1H-pyrazol-4-yl}methoxy)-1-benzofuran-2-yl]pyridine-3-carbonitrile], for which the 50% inhibitory concentration (IC50) was less than 0.1 µM.

For the compound `COc1ccc(C(=O)Nc2ccc3oc(-c4ccc(=O)n(C)n4)nc3c2)nc1` [5-methoxy-N-[2-(1-methyl-6-oxo-1,6-dihydropyridazin-3-yl)-1,3-benzoxazol-5-yl]pyridine-2-carboxamide], the IC50 is less than 0.1 µM.

The compound `Cc1cc(C(=O)Nc2ccc3oc(-c4cccnc4)nc3c2)ccn1` [2-methyl-N-[2-(pyridin-3-yl)-1,3-benzoxazol-5-yl]pyridine-4-carboxamide] displayed an IC50 of less than 0.1 µM.

Take `COc1ccc(COc2ccc3oc(-c4ccnnc4)nc3c2)nc1` [5-[(5-methoxypyridin-2-yl)methoxy]-2-(pyridazin-4-yl)-1,3-benzoxazole]: the IC50 was less than 0.1 µM.

In turn, `COc1ccc(COc2ccc3oc(-c4ccc(N)nc4)nc3c2)nc1` [5-{5-[(5-methoxypyridin-2-yl)methoxy]-1,3-benzoxazol-2-yl}pyridin-2-amine] came in with an IC50 of less than 0.1 µM.

For `COc1ccc(C(=O)Nc2ccc3oc(-c4ccc(OC)cc4)nc3c2)cc1` [4-methoxy-N-[2-(4-methoxyphenyl)-1,3-benzoxazol-5-yl]benzamide], the IC50 was less than 0.1 µM.

With `Oc1ccc(COc2ccc3oc(-c4cccnc4)nc3c2)nc1` [6-({[2-(pyridin-3-yl)-1,3-benzoxazol-5-yl]oxy}methyl)pyridin-3-ol], the IC50 was less than 0.1 µM.

Compound `COc1ccc(C#Cc2cnc3oc(-c4cccnc4)nc3c2)cc1` [3-{6-[2-(4-methoxyphenyl)ethynyl]-[1,3]oxazolo[5,4-b]pyridin-2-yl}pyridine] registered an IC50 of less than 0.1 µM.

With `COc1ccc(OCc2ccc3oc(-c4cccnc4)nc3c2)nc1` [5-{[(5-methoxypyridin-2-yl)oxy]methyl}-2-(pyridin-3-yl)-1,3-benzoxazole], the IC50 was less than 0.1 µM.

Take `COc1ccc(C(C)Oc2cnc3oc(-c4cccnc4)nc3c2)nc1` (stereo not drawn) [3-{6-[1-(5-methoxypyridin-2-yl)ethoxy]-[1,3]oxazolo[5,4-b]pyridin-2-yl}pyridine]: the IC50 lay within 0.1 to 0.5 µM.

As for `COc1ccc(COc2ccc3oc(-c4ccncc4)nc3c2)nc1` [5-[(5-methoxypyridin-2-yl)methoxy]-2-(pyridin-4-yl)-1,3-benzoxazole], the IC50 is less than 0.1 µM.

Turning to `COc1cnc2c(c1)CN(c1ccc3oc(-c4cccnc4)nc3c1)C2=O` [3-methoxy-6-[2-(pyridin-3-yl)-1,3-benzoxazol-5-yl]-5H,6H,7H-pyrrolo[3,4-b]pyridin-7-one], the IC50 was less than 0.1 µM.

Turning to `O=C(COc1ccccc1)Nc1ccc2oc(-c3cccnc3)nc2c1` [2-phenoxy-N-[2-(pyridin-3-yl)-1,3-benzoxazol-5-yl]acetamide], the IC50 is less than 0.1 µM.

`COc1ccc(C(=O)Nc2cnc3oc(-c4cccc(C)c4)nc3c2)cc1` [4-methoxy-N-[2-(3-methylphenyl)[1,3]oxazolo[5,4-b]pyridin-6-yl]benzamide] showed an IC50 of less than 0.1 µM.

In turn, `CNC(=O)c1ccc(-c2nc3cc(OCc4ccc(OC)cn4)ccc3o2)cn1` [5-{5-[(5-methoxypyridin-2-yl)methoxy]-1,3-benzoxazol-2-yl}-N-methylpyridine-2-carboxamide] returned an IC50 of less than 0.1 µM.

Compound `COc1ccc(COc2ccc3oc(-c4cc5ccccc5o4)nc3c2)nc1` [2-(1-benzofuran-2-yl)-5-[(5-methoxypyridin-2-yl)methoxy]-1,3-benzoxazole] showed an IC50 of less than 0.1 µM.

Turning to `COc1ccc(COc2ccc3oc(-c4cccc(C#N)c4)nc3c2)nc1` [3-{5-[(5-methoxypyridin-2-yl)methoxy]-1,3-benzoxazol-2-yl]benzonitrile], the IC50 is less than 0.1 µM.

`Cn1cc(-c2nc3cc(OCc4ccc(O)cn4)ccc3o2)cn1` [6-({[2-(1-methyl-1H-pyrazol-4-yl)-1,3-benzoxazol-5-yl]oxy}methyl)pyridin-3-ol] had an IC50 of 0.1 to 0.5 µM.

`Cn1cc(-c2nc3cc(OCc4cnccn4)cnc3o2)cn1` [2-({[2-(1-methyl-1H-pyrazol-4-yl)-[1,3]oxazolo[5,4-b]pyridin-6-yl]oxy}methyl)pyrazine]: the IC50 is 0.1 to 0.5 µM.

With `COc1ccc(C(Nc2cnc3oc(-c4cccnc4)nc3c2)C(F)(F)F)cc1` (stereo not drawn) [2-(pyridin-3-yl)-N-[2,2,2-trifluoro-1-(4-methoxyphenyl)ethyl]-[1,3]oxazolo[5,4-b]pyridin-6-amine], the IC50 is greater than 0.05 µM.

`COc1ccc(COc2ccc3oc(-c4ccncc4)cc3c2)nc1` [4-{5-[(5-methoxypyridin-2-yl)methoxy]-1-benzofuran-2-yl}pyridine]: the IC50 is less than 0.1 µM.

Compound `COc1ccc(COc2cnc3oc(-c4cccnc4)nc3c2)nn1` [3-methoxy-6-({[2-(pyridin-3-yl)-[1,3]oxazolo[5,4-b]pyridin-6-yl]oxy}methyl)pyridazine] registered an IC50 of less than 0.1 µM.

`COc1ccc(COc2cnc3oc(-c4ccc[n+]([O-])c4)nc3c2)[n+]([O-])c1` [3-{6-[(5-methoxy-1-oxidopyridin-1-ium-2-yl)methoxy]-[1,3]oxazolo[5,4-b]pyridin-2-yl}pyridin-1-ium-1-olate] returned an IC50 of 0.1 to 0.5 µM.

`Cn1cnc(COc2ccc3oc(-c4ccncc4C#N)cc3c2)c1` [4-{5-[(1-methyl-1H-imidazol-4-yl)methoxy]-1-benzofuran-2-yl}pyridine-3-carbonitrile] had an IC50 of less than 0.1 µM.
